# Measured values as given in US7879347B2, “Dihydroxyphenyl compounds and glucoside compounds thereof” (KAO Corporation, priority 2001, dated 2011).
# Key:
# [1] = test system: Free fatty cells from epididymis fatty tissues; test: Determination of lypolytic activity in free fatty cells; assay type: cell-based, Wister male rats; conditions: for degree of lypolysis promotion (%): 100 μg/ml test compound, 0.05 μg/ml norepinephrine, 37° C., 1 hour, fatty acids relative to control solution without compound (=100)
# Procedure: The cells were added to a Hank's balanced solution containing 0.05 μg/ml of bovine serum albumin, 0.05 μg/ml of norepinephrine and 100 μg/ml of the present compound to be tested, and then allowed to react at 37° C. for 1 hour. Liberated fatty acids were extracted and quantitated with a copper reagent and a color developing reagent. Lypolytic activity was calculated according to the following equation. Lypolytic activity(%)=[A/B]×100, wherein A: amount of fatty acids in a sample solution, and B: that in a control solution without present compound. Subcutaneous Fat Decomposition Test
# [2] = test system: B16 melanoma cells; test: Melanogenesis inhibition test; assay type: cell-based; conditions: 72 hours; for Amount of melanin per cell (%): Theophylline containing medium, relative to blank
# Procedure: B16 melanoma cells were inoculated in a 12 wells-plastic plate at a concentration of 2×10^4/well on MEM (Minimum Essential Medium). After 24 hours, the medium was changed to a Theophylline containing medium to which 4-(3′,4′-dihydroxyphenyl)-butane-2-one was added in the concentrations shown in Table 6. The cells were cultured for 72 hours and then treated with 10% TCA and ethanol/diethylether(=1/1). After counting the number of the cells, the cells were dissolved in an aqueous 1 mol/l sodium hydroxide solution containing dimethylsulfoxide in a concentration of 10%. Optical density at 475 nm (OD475) of the solution thus obtained was measured.
# [3] = Anti-oxidation test (UV-induced peroxide formation); parameters: unit not given here; conditions: 0.005 g compound in 1 ml methyl linolate
# Description: Comparative test on raspberry ketone was made in the same manner as above.
SMILES,degree of lypolysis promotion (%) [1],lypolytic activity compared with raspberry ketone of Comparative Example 1 ([1]; comparison in words),Amount of melanin per cell (%) ([2]; concentration 1 μg/l),Amount of melanin per cell (%) ([2]; concentration 3 μg/l),Amount of melanin per cell (%) ([2]; concentration 10 μg/l),Amount of melanin per cell (%) ([2]; concentration 30 μg/l),numbers of the cells ([2]; concentration range of Table 6 (up to 30 μg/l)),amount of peroxides formed by oxidation of methyl linolate ([3]; UVB 10 (J/cm^2)),amount of peroxides formed by oxidation of methyl linolate ([3]; UVB 30 (J/cm^2))
"CC(=O)CCc1ccc(O)c(O)c1 [4-(3′,4′-dihydroxyphenyl)-butane-2-one]",194.3 +/− 12.4%,significantly higher,94.7%,77.2%,62.7%,2.2%,no difference,1.6,3.7
"CC(=O)CCc1ccc(O)cc1 [Raspberry ketone, reference compound]",142.0 +/− 6.8%,–,–,–,–,–,–,30.2,42.5
